According to ChEMBL document CHEMBL4376834, “Discovery of 4H-Chromen-4-one Derivatives as a New Class of Selective Rho Kinase (ROCK) Inhibitors, which Showed Potent Activity in ex Vivo Diabetic Retinopathy Models” (J Med Chem, 2019):

Assays:
[1] = molecular target: Serine/threonine-protein kinase B-raf (Homo sapiens, UniProt P15056, V600E); test: Inhibition of recombinant full length human B-Raf V599E mutant (416 to end residues) using myelin basic protein as substrate incubated for 40 mins in presence of [gamma-33ATP] by radiometric scintillation counting analysis
[2] = molecular target: Dual specificity tyrosine-phosphorylation-regulated kinase 3 (Homo sapiens, UniProt O43781); test: Inhibition of recombinant full length human DYRK3 using RRRFRPASPLRGPP as substrate after 40 mins in presence of [gamma-33ATP] by radiometric scintillation counting analysis
[3] = molecular target: Tyrosine-protein kinase Fes/Fps (Homo sapiens, UniProt P07332); test: Inhibition of recombinant human FES (2 to end residues) using poly(Glu, Tyr) 4:1 as substrate after 40 mins in presence of [gamma-33ATP] by radiometric scintillation counting analysis
[4] = molecular target: Dual specificity tyrosine-phosphorylation-regulated kinase 2 (Homo sapiens, UniProt Q92630); test: Inhibition of recombinant full length human DYRK2 using casein as substrate after 40 mins in presence of [gamma-33ATP] by radiometric scintillation counting analysis
Activin receptor type-1B = Activin receptor type-1B (Homo sapiens, UniProt P36896); test: Inhibition of human recombinant ALK4 (150 to end residues) using casein as substrate incubated for 40 mins in presence of [gamma-33P]ATP by radiometric scintillation counting analysis
[5] = molecular target: Transient receptor potential cation channel subfamily M member 7 (Homo sapiens, UniProt Q96QT4); test: Inhibition of recombinant human CHAK1 (1180 to end residues) using myelin basic protein as substrate incubated for 40 mins in presence of [gamma-33ATP] by radiometric scintillation counting analysis
[6] = molecular target: Death-associated protein kinase 2 (Homo sapiens, UniProt Q9UIK4); test: Inhibition of recombinant full length human DAPK2 using Calmodulin as substrate incubated 40 mins in presence of [gamma-33ATP] by radiometric scintillation counting analysis
Activin receptor type-1 = Activin receptor type-1 (Homo sapiens, UniProt Q04771); test: Inhibition of human recombinant ALK2 (147 to end residues) using casein as substrate incubated for 40 mins in presence of [gamma-33P]ATP by radiometric scintillation counting analysis
[7] = molecular target: Myosin light chain kinase, smooth muscle (Homo sapiens, UniProt Q15746); test: Inhibition of recombinant human MLCK (1425 to 1771 residues) using […] as substrate incubated for 40 mins in presence of [gamma-33ATP by radiometric scintillation counting analysis
[8] = molecular target: Epidermal growth factor receptor (Homo sapiens, UniProt P00533, T790M); test: Inhibition of recombinant human EGFR T790M mutant (696 to end residues) using poly(Glu, Tyr) 4:1 as substrate after 40 mins in presence of [gamma-33ATP] by radiometric scintillation counting analysis
[9] = molecular target: Serine/threonine-protein kinase 32C (Homo sapiens, UniProt Q86UX6); test: Inhibition of recombinant human full length STK32C using casein as substrate incubated for 120 mins in presence of [gamma33P]ATP by radiometric scintillation counting analysis
[10] = molecular target: RAF proto-oncogene serine/threonine-protein kinase (Homo sapiens, UniProt P04049, Y340D/Y341D); test: Inhibition of recombinant human C-Raf Y340D/Y341D double mutant (306 to end residues) using poly(Glu, Tyr) 4:1 as substrate incubated 40 mins in presence of [gamma-33ATP] by radiometric scintillation counting analysis
[11] = molecular target: Cyclin-dependent kinase 1/cyclin B1 (Homo sapiens, UniProt P06493); test: Inhibition of recombinant full length human CDK1/CyclinB using Histone H1 as substrate incubated for 40 mins in presence of [gamma-33ATP] by radiometric scintillation counting analysis; assay type: protein-complex assay
[12] = Protein binding in rat plasma at 1 uM incubated incubated for 5 hrs under shaking conditions by LC-MS analysis; assay type: ADME, cell-free; settings: read-out: PPB (converted)
[13] = molecular target: Mitogen-activated protein kinase kinase kinase kinase 1 (Homo sapiens, UniProt Q92918); test: Inhibition of human recombinant HPK1 (1 to 346 residues) using myelin basic protein as substrate after 40 mins by [gamma-33ATP] radiometric assay
[14] = molecular target: Tyrosine-protein kinase HCK (Homo sapiens, UniProt P08631); test: Inhibition of human recombinant activated HCK (230 to 497 residues) using GGMEDIYFEFMGG as substrate after 40 mins by [gamma-33ATP] radiometric assay
[15] = molecular target: Serine/threonine-protein kinase PLK2 (Homo sapiens, UniProt Q9NYY3); test: Inhibition of recombinant human SNK (65 to 409 residues) using casein as substrate incubated for 40 mins in presence of [gamma33P]ATP by radiometric scintillation counting analysis
[16] = Inhibition of recombinant human TIE2 Q939H/Q940H/Y897S triple mutant (771 to end residues) using EFPIYDFLPAKKK as substrate incubated for 40 mins in presence of [gamma33P]ATP by radiometric scintillation counting analysis
[17] = Inhibition of recombinant human MARK1 V16E/T20S double mutant (2 to end residues) using KKKVSRSGLYRSP as substrate incubated for 40 mins in presence of [gamma-33ATP by radiometric scintillation counting analysis
[18] = Inhibition of recombinant human DDR1 V833L mutant (492 to end residues) using KKKSPGEYVNIEF as substrate after 40 mins in presence of [gamma-33ATP] by radiometric scintillation counting analysis
[19] = Inhibition of human recombinant full length AURORA-A I31F mutant using kemptide as substrate incubated for 40 mins in presence of [gamma-33P]ATPand 10 uM ATP by radiometric scintillation counting analysis
FKBP12A/mTOR = FKBP12A/mTOR (Homo sapiens, UniProt P42345+P62942); test: Inhibition of recombinant full length human mTOR/FKBP12 measured after 40 mins in presence of [gamma33P]ATP by radiometric scintillation counting analysis; assay type: protein-complex assay
[20] = molecular target: Serine/threonine-protein kinase Nek4 (Homo sapiens, UniProt P51957, P225A); test: Inhibition of recombinant full-length human NEK4 P225A mutant using myelin basic protein as substrate measured after 40 mins in presence of [gamma33P]ATP by radiometric scintillation counting analysis
[21] = molecular target: Receptor tyrosine-protein kinase erbB-2 (Homo sapiens, UniProt P04626, G778D); test: Inhibition of recombinant human ERBB2 G778D (676 to end residues) using poly(Glu, Tyr) 4:1 as substrate after 40 mins in presence of [gamma-33ATP] by radiometric scintillation counting analysis
[22] = molecular target: Serine-protein kinase ATM (Homo sapiens, UniProt Q13315); test: Inhibition of recombinant full-length human ATM using GST-cMyc-p53 as substrate measured after 40 mins by ELISA
[23] = molecular target: Calcium/calmodulin-dependent protein kinase type IV (Homo sapiens, UniProt Q16566); test: Inhibition of recombinant full length human CaMK4 using calmodulin as substrate incubated for 40 mins in presence of [gamma-33ATP] by radiometric scintillation counting analysis
Rhodopsin kinase GRK7 = Rhodopsin kinase GRK7 (Homo sapiens, UniProt Q8WTQ7); test: Inhibition of recombinant full length human GRK7 using casein as substrate after 40 mins in presence of [gamma-33ATP] by radiometric scintillation counting analysis
Rhodopsin kinase GRK7, sequence (Q8WTQ7 whole entry): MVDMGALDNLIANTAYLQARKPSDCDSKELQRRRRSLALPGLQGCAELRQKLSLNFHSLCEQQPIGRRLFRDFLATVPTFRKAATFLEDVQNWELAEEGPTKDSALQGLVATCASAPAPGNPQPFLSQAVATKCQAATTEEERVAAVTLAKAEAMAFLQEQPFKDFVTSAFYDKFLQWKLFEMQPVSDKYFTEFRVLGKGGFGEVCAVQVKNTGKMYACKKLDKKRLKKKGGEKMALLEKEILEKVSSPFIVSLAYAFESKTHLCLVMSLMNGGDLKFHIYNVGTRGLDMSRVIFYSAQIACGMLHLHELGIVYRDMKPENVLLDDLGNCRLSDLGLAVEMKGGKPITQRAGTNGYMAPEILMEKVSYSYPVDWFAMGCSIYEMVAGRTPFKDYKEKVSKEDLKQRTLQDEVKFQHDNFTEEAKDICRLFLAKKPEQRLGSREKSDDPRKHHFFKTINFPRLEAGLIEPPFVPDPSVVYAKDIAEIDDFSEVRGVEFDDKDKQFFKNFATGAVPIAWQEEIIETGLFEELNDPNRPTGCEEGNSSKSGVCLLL

Calcium/calmodulin-dependent protein kinase type IV, sequence (Q16566 whole entry): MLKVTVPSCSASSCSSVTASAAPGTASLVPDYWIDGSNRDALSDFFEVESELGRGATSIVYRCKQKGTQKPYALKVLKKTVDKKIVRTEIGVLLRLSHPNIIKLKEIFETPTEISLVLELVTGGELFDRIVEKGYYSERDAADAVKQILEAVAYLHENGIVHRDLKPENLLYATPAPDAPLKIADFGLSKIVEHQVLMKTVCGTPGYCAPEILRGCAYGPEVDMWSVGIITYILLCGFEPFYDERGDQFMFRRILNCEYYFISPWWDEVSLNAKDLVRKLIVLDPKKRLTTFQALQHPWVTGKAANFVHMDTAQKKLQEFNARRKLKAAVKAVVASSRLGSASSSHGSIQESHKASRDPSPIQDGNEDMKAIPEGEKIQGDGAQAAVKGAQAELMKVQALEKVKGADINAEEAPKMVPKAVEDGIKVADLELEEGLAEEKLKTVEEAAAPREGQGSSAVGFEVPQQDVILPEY
Epidermal growth factor receptor, sequence (P00533 25-1210 T790M limits assumed): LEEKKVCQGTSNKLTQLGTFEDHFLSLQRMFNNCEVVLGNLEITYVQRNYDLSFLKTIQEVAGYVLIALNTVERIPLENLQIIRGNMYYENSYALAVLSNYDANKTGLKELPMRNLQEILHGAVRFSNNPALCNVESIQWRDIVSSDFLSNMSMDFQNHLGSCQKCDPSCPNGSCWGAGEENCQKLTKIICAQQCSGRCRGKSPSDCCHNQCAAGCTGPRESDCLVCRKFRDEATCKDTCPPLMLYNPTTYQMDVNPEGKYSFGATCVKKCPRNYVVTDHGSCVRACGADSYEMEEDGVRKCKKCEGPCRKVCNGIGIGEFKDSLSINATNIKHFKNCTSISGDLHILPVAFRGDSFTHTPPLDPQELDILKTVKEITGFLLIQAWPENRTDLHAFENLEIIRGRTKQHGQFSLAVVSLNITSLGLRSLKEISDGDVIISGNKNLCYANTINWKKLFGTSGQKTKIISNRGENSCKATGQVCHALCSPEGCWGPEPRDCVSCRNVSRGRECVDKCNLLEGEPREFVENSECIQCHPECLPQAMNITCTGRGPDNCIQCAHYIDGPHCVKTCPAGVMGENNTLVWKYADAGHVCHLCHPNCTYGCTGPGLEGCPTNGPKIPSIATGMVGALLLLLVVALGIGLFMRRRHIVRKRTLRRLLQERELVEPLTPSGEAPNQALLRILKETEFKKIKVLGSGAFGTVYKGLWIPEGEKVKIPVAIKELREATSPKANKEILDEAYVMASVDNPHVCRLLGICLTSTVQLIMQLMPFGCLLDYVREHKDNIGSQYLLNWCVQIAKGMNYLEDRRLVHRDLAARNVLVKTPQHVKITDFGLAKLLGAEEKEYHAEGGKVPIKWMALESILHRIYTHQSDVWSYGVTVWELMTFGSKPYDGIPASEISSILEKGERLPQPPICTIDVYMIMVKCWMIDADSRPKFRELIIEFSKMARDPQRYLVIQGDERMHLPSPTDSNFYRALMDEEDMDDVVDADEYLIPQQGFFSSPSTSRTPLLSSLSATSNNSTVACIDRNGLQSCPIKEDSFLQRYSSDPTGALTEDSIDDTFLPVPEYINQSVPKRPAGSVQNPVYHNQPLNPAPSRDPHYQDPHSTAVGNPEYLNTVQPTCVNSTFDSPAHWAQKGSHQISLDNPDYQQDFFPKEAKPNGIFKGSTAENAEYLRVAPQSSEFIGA
RAF proto-oncogene serine/threonine-protein kinase, sequence (P04049 whole entry Y340D/Y341D): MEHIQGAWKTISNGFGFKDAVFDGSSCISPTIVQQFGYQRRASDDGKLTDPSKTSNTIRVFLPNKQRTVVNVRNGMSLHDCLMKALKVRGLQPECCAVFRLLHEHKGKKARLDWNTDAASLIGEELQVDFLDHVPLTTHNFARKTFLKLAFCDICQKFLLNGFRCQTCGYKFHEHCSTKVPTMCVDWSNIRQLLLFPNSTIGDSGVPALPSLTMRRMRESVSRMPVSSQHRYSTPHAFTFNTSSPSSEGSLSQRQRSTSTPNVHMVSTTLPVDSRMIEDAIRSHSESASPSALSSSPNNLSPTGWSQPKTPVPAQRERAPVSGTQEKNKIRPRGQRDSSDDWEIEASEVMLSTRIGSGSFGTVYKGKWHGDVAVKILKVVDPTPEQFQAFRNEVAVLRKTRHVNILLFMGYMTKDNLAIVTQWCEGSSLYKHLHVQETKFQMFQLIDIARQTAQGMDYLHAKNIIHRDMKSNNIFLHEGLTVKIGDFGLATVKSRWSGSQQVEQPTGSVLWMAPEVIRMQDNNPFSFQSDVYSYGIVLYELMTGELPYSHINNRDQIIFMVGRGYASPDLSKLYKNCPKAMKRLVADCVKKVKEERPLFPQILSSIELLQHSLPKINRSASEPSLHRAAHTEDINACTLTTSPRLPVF
Mitogen-activated protein kinase kinase kinase kinase 1, sequence (Q92918 whole entry, the tested form may be a part): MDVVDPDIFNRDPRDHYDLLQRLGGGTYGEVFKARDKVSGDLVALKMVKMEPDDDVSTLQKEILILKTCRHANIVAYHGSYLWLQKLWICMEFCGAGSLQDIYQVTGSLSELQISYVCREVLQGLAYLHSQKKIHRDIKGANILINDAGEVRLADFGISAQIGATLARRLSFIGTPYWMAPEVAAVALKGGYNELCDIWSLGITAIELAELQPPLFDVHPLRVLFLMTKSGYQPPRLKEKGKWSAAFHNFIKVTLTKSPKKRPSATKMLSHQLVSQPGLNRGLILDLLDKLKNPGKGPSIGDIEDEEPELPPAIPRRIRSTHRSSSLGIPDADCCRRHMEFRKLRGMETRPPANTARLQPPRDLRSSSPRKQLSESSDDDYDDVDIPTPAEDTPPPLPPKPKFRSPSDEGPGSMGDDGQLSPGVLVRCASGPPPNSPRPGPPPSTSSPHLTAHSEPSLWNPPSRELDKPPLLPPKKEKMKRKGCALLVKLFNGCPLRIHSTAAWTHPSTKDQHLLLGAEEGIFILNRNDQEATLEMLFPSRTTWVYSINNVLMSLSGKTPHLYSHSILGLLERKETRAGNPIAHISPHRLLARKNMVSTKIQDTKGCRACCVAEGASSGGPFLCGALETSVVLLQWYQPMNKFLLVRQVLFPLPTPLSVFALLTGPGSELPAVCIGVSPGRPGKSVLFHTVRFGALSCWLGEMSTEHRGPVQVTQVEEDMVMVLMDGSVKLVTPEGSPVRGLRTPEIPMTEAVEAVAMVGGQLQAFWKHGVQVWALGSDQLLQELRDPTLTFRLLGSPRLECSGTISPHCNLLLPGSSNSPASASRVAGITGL
Tyrosine-protein kinase Fes/Fps, sequence (P07332 whole entry): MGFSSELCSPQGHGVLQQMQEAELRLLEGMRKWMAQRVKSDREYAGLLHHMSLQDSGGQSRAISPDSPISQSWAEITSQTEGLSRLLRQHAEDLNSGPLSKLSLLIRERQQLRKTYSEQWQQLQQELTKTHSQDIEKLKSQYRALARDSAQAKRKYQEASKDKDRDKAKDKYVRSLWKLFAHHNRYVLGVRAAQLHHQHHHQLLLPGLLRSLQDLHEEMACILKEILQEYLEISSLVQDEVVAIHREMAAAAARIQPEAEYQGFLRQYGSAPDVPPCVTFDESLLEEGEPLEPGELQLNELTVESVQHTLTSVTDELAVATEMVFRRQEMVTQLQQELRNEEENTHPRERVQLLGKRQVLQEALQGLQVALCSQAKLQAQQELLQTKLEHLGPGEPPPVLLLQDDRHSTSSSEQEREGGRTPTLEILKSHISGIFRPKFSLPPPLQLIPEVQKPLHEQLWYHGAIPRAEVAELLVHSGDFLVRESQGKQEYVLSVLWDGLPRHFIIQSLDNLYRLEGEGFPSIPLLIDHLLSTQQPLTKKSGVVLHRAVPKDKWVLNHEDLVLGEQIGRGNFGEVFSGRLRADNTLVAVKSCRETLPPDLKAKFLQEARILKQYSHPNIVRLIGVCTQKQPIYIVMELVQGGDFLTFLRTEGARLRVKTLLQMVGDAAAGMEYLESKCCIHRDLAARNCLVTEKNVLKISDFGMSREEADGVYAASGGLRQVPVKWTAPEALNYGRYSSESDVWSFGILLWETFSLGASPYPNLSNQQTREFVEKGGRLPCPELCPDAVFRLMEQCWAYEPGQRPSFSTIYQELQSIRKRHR
Activin receptor type-1B, sequence (P36896 whole entry): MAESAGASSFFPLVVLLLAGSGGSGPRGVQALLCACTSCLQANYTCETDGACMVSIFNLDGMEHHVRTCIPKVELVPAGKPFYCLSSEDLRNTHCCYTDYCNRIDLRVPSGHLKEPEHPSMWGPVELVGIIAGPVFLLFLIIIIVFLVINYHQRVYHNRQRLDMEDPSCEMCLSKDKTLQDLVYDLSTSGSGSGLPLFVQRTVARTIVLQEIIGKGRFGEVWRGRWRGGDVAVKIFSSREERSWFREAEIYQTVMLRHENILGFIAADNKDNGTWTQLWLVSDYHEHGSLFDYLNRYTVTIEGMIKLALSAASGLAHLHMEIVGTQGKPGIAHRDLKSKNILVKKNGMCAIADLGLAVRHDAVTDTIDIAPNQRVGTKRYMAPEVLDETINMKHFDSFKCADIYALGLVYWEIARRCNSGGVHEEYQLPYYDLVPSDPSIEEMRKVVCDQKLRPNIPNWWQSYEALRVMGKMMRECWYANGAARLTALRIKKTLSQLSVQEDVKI

With CN(C)c1ccc(C(=O)Nc2cccc(NC(=O)COc3ccc4c(=O)ccoc4c3)c2)cc1 the IC50 [1] was > 10 µM, the IC50 [2] was > 10 µM and the IC50 [3] was > 10 µM. For the same compound, the IC50 [4] was > 10 µM, the IC50 (Activin receptor type-1B) was > 10 µM and the IC50 [5] was > 10 µM. For the same compound, the IC50 [6] was > 10 µM, the IC50 (Activin receptor type-1) was > 10 µM and the IC50 [7] was > 10 µM. The IC50 [8] was > 10 µM, the IC50 [9] was > 10 µM and the IC50 [10] was > 10 µM. The IC50 [11] was > 10 µM, the fraction unbound at 5 h, 1 µM [12] was 0.004 and the IC50 [13] was > 10 µM. The IC50 [14] was > 10 µM, the IC50 [15] was > 10 µM and the IC50 [16] was > 10 µM. For the same compound, the IC50 [17] was > 10 µM, the IC50 [18] was > 10 µM and the IC50 [19] was 1.07 µM. For the same compound, the IC50 (FKBP12A/mTOR) was > 10 µM, the IC50 [20] was > 10 µM and the IC50 [21] was > 10 µM. For the same compound, the IC50 [22] was > 10 µM, the IC50 [23] was > 10 µM and the IC50 (Rhodopsin kinase GRK7) was > 10 µM.
